Test system: murine ESREs
Experiment: murine ESRE self-renewal supported by glucocorticoid
Format: cell-based, mouse
Conditions: as effectively as 10^−6M dexamethasone; preliminary studies
From the text: Other reagents necessary for improving the efficiency with which self-renewing cultures can be derived from human ESCs can be tested. This includes alternate steroids, such as fluticasone proprionate, an extremely potent glucocorticoid agent; our preliminary studies of murine ESREs indicate that doses of fluticasone as low as 10^−9M support erythroblast self-renewal as effectively as 10^−6M dexamethasone. Various lipid additives, including Excyte (Millipore) and Human LDL (Stem Cell Technology) can also be test for to optimizing support human erythroblast self-renewal.

fluticasone proprionate
dose that supports erythroblast self-renewal: ≤ 10^−9 M
